# What was measured:
# [1] = system: Saccharomyces cerevisiae; assay: Antifungal activity against Saccharomyces cerevisiae assessed as growth inhibition at 1 mg/mL after 24 hrs by agar well diffusion assay; type: functional; settings: read-out: DIZ
# [2] = system: Candida albicans; assay: Antifungal activity against Candida albicans NRRLY 477 assessed as growth inhibition at 1 mg/mL after 24 hrs by agar well diffusion assay; type: functional; settings: NRRLY 477, 24 h, read-out: DIZ
# [3] = system: Klebsiella pneumoniae; assay: Antibacterial activity against Klebsiella pneumoniae ATCC 13883 assessed as growth inhibition at 1 mg/mL after 24 hrs by agar well diffusion assay; type: functional; settings: ATCC 13883, 24 h, read-out: DIZ
# [4] = system: Pseudomonas aeruginosa; assay: Antibacterial activity against Pseudomonas aeruginosa ATCC 27953 assessed as growth inhibition at 1 mg/mL after 24 hrs by agar well diffusion assay; type: functional; settings: ATCC 27953, 24 h, read-out: DIZ
# [5] = system: Escherichia coli; assay: Antibacterial activity against Escherichia coli ATCC 25922 assessed as growth inhibition at 1 mg/mL after 24 hrs by agar well diffusion assay; type: functional; settings: ATCC 25922, 24 h, read-out: DIZ
# [6] = system: Proteus vulgaris; assay: Antibacterial activity against Proteus vulgaris assessed as growth inhibition at 1 mg/mL after 24 hrs by agar well diffusion assay; type: functional; settings: read-out: DIZ
# [7] = system: Micrococcus luteus; assay: Antibacterial activity against Sarcina luteus assessed as growth inhibition at 1 mg/mL after 24 hrs by agar well diffusion assay; type: functional; settings: read-out: DIZ
# [8] = system: Priestia megaterium; assay: Antibacterial activity against Bacillus megaterium ATCC 9885 assessed as growth inhibition at 1 mg/mL after 24 hrs by agar well diffusion assay; type: functional; settings: ATCC 9885, 24 h, read-out: DIZ
# [9] = system: Bacillus spizizenii; assay: Antibacterial activity against Bacillus subtilis ATCC 6633 assessed as growth inhibition at 1 mg/mL after 24 hrs by agar well diffusion assay; type: functional; settings: ATCC 6633, 24 h, read-out: DIZ
# [10] = system: Staphylococcus aureus; assay: Antibacterial activity against Staphylococcus aureus ATCC 29213 assessed as growth inhibition at 1 mg/mL after 24 hrs by agar well diffusion assay; type: functional; settings: ATCC 29213, 24 h, read-out: DIZ
# [11] = system: Micrococcus luteus; assay: Bacteriostatic activity against Sarcina luteus after 24 hrs by two-fold serial dilution assay; type: functional
# [12] = system: Escherichia coli; assay: Potency index, ratio of ciprofloxacin MIC to compound MIC for Escherichia coli ATCC 25922; type: functional
# [13] = system: Candida albicans; assay: Fungistatic activity against Candida albicans NRRLY 477 after 24 hrs by two-fold serial dilution assay; type: functional; settings: NRRLY 477, 24 h
# [14] = system: Escherichia coli; assay: Bacteriostatic activity against Escherichia coli ATCC 25922 after 24 hrs by two-fold serial dilution assay; type: functional; settings: ATCC 25922, 24 h
# [15] = system: Klebsiella pneumoniae; assay: Bacteriostatic activity against Klebsiella pneumoniae ATCC 13883 after 24 hrs by two-fold serial dilution assay; type: functional; settings: ATCC 13883, 24 h
# [16] = system: Staphylococcus aureus; assay: Bacteriostatic activity against Staphylococcus aureus ATCC 29213 after 24 hrs by two-fold serial dilution assay; type: functional; settings: ATCC 29213, 24 h
# [17] = system: Pseudomonas aeruginosa; assay: Bacteriostatic activity against Pseudomonas aeruginosa ATCC 27953 after 24 hrs by two-fold serial dilution assay; type: functional; settings: ATCC 27953, 24 h
# [18] = system: Saccharomyces cerevisiae; assay: Fungistatic activity against Saccharomyces cerevisiae after 24 hrs by two-fold serial dilution assay; type: functional
# [19] = system: Proteus vulgaris; assay: Bacteriostatic activity against Proteus vulgaris after 24 hrs by two-fold serial dilution assay; type: functional
# [20] = system: Priestia megaterium; assay: Bacteriostatic activity against Bacillus megaterium ATCC 9885 after 24 hrs by two-fold serial dilution assay; type: functional; settings: ATCC 9885, 24 h
# [21] = system: Bacillus spizizenii; assay: Bacteriostatic activity against Bacillus subtilis ATCC 6633 after 24 hrs by two-fold serial dilution assay; type: functional; settings: ATCC 6633, 24 h
# [22] = system: Pseudomonas aeruginosa; assay: Potency index, ratio of ciprofloxacin MIC to compound MIC for Pseudomonas aeruginosa ATCC 27953; type: functional
# [23] = system: Klebsiella pneumoniae; assay: Potency index, ratio of ciprofloxacin MIC to compound MIC for Klebsiella pneumoniae ATCC 13883; type: functional
# [24] = system: Proteus vulgaris; assay: Potency index, ratio of ciprofloxacin MIC to compound MIC for Proteus vulgaris; type: functional
# [25] = system: Micrococcus luteus; assay: Potency index, ratio of ciprofloxacin MIC to compound MIC for Sarcina luteus; type: functional
# [26] = system: Micrococcus luteus; assay: Antibacterial activity against Sarcina luteus assessed as growth inhibition at 0.5 mg/mL after 24 hrs by agar well diffusion assay; type: functional; settings: read-out: DIZ
# [27] = system: Pseudomonas aeruginosa; assay: microbe, parasite or virus in culture; settings: ATCC 27953, 24 h, read-out: DIZ
# Description: Antibacterial activity against Pseudomonas aeruginosa ATCC 27953 assessed as growth inhibition at 0.5 mg/mL after 24 hrs by agar well diffusion assay
# [28] = system: Klebsiella pneumoniae; assay: microbe, parasite or virus in culture; settings: ATCC 13883, 24 h, read-out: DIZ
# Description: Antibacterial activity against Klebsiella pneumoniae ATCC 13883 assessed as growth inhibition at 0.5 mg/mL after 24 hrs by agar well diffusion assay
# [29] = system: Staphylococcus aureus; assay: microbe, parasite or virus in culture; settings: ATCC 29213, 24 h, read-out: DIZ
# Description: Antibacterial activity against Staphylococcus aureus ATCC 29213 assessed as growth inhibition at 0.5 mg/mL after 24 hrs by agar well diffusion assay
# [30] = system: Bacillus spizizenii; assay: Antibacterial activity against Bacillus subtilis ATCC 6633 assessed as growth inhibition at 0.5 mg/mL after 24 hrs by agar well diffusion assay; type: functional; settings: ATCC 6633, 24 h, read-out: DIZ
# [31] = system: Proteus vulgaris; assay: Antibacterial activity against Proteus vulgaris assessed as growth inhibition at 0.5 mg/mL after 24 hrs by agar well diffusion assay; type: functional; settings: read-out: DIZ
# [32] = system: Priestia megaterium; assay: Antibacterial activity against Bacillus megaterium ATCC 9885 assessed as growth inhibition at 0.5 mg/mL after 24 hrs by agar well diffusion assay; type: functional; settings: ATCC 9885, 24 h, read-out: DIZ
# [33] = system: Saccharomyces cerevisiae; assay: Antifungal activity against Saccharomyces cerevisiae assessed as growth inhibition at 0.5 mg/mL after 24 hrs by agar well diffusion assay; type: functional; settings: read-out: DIZ
# [34] = system: Candida albicans; assay: Antifungal activity against Candida albicans NRRLY 477 assessed as growth inhibition at 0.5 mg/mL after 24 hrs by agar well diffusion assay; type: functional; settings: NRRLY 477, 24 h, read-out: DIZ
SMILES,zone of inhibition at 1000 µg/mL [1] [mm],zone of inhibition at 1000 µg/mL [2] [mm],zone of inhibition at 1000 µg/mL [3] [mm],zone of inhibition at 1000 µg/mL [4] [mm],zone of inhibition at 1000 µg/mL [5] [mm],zone of inhibition at 1000 µg/mL [6] [mm],zone of inhibition at 1000 µg/mL [7] [mm],zone of inhibition at 1000 µg/mL [8] [mm],zone of inhibition at 1000 µg/mL [9] [mm],zone of inhibition at 1000 µg/mL [10] [mm],also measured
O=C(O)CNC(=O)c1ccc(NC(=S)N/N=C/c2cccc(Br)c2)cc1,11,0,9,11,20,0,18,18,13,18,
Cc1ccc(/C=N/NC(=S)Nc2ccc(C(=O)NCC(=O)O)cc2)cc1,0,0,0,0,0,20,24,9,0,10,
O=C(O)CNC(=O)c1ccc(NC(=S)N/N=C/c2ccc(F)cc2)cc1,20,20,30,30,31,26,28,19,20,28,MIC [11]: 25 µg/mL; PI [12]: 2; MIC [13]: 50 µg/mL; MIC [14]: 6.25 µg/mL; MIC [15]: 12.5 µg/mL; MIC [16]: 6.25 µg/mL; MIC [17]: 25 µg/mL; MIC [18]: 12.5 µg/mL; MIC [19]: 12.5 µg/mL; MIC [20]: 12.5 µg/mL; MIC [21]: 12.5 µg/mL
O=C(O)CNC(=O)c1ccc(NC(=S)N/N=C/c2ccc([N+](=O)[O-])cc2)cc1,0,0,0,0,0,0,0,14,15,11,
C/C(=N\NC(=S)Nc1ccc(C(=O)NCC(=O)O)cc1)c1ccccc1,17,0,18,19,19,19,25,18,14,20,
C/C(=N\NC(=S)Nc1ccc(C(=O)NCC(=O)O)cc1)c1ccc(Br)cc1,18,0,19,19,23,20,25,17,15,20,
C/C(=N\NC(=S)Nc1ccc(C(=O)NCC(=O)O)cc1)c1ccc(C)cc1,26,25,22,32,27,21,25,25,19,29,MIC [11]: 12.5 µg/mL; PI [12]: 2; PI [22]: 4; MIC [13]: 25 µg/mL; MIC [14]: 6.25 µg/mL; MIC [15]: 25 µg/mL; MIC [16]: 6.25 µg/mL; MIC [17]: 3.12 µg/mL; MIC [18]: 6.25 µg/mL; MIC [19]: 12.5 µg/mL; MIC [20]: 12.5 µg/mL; MIC [21]: 12.5 µg/mL
C/C(=N\NC(=S)Nc1ccc(C(=O)NCC(=O)O)cc1)c1ccc(Cl)cc1,0,0,0,0,0,0,0,14,15,9,
O=C(O)CNC(=O)c1ccc(NC(=S)NN=C(c2ccccc2)c2ccccc2)cc1,0,0,0,12,17,0,0,15,20,0,
O=C(O)CNC(=O)c1ccc(NC(=S)NN=C2CCCCC2)cc1,0,0,0,12,0,20,24,9,0,11,
O=C(O)CNC(=O)c1ccc(NC(=S)N/N=C2/CCc3ccccc32)cc1,20,20,28,28,25,20,25,18,18,28,MIC [11]: 12.5 µg/mL; PI [12]: 2; PI [22]: 2; MIC [13]: 12.5 µg/mL; MIC [14]: 12.5 µg/mL; MIC [15]: 12.5 µg/mL; MIC [16]: 6.25 µg/mL; MIC [17]: 6.25 µg/mL; MIC [18]: 50 µg/mL; MIC [19]: 12.5 µg/mL; PI [23]: 2; MIC [20]: 50 µg/mL; PI [24]: 2; PI [25]: 2; MIC [21]: 25 µg/mL
O=C(O)CNC(=O)c1ccc(NC(=S)N/N=C2/CC(=O)c3ccccc32)cc1,12,0,0,11,18,20,24,0,9,28,
O=C(O)c1cn(C2CC2)c2cc(N3CCNCC3)c(F)cc2c1=O [CIPROFLOXACIN],,,,,,,,,,,MIC [11]: 12.5 µg/mL; zone of inhibition at 500 µg/mL [26]: 20 mm; zone of inhibition at 500 µg/mL [27]: 24 mm; MIC [14]: 12.5 µg/mL; MIC [15]: 12.5 µg/mL; zone of inhibition at 500 µg/mL [28]: 25 mm; zone of inhibition at 500 µg/mL [29]: 20 mm; MIC [19]: 12.5 µg/mL; zone of inhibition at 500 µg/mL [30]: 22 mm; zone of inhibition at 500 µg/mL [31]: 23 mm; MIC [20]: 6.25 µg/mL; zone of inhibition at 500 µg/mL [32]: 24 mm; MIC [21]: 6.25 µg/mL
CC(=O)N1CCN(c2ccc(OCC3COC(Cn4ccnc4)(c4ccc(Cl)cc4Cl)O3)cc2)CC1 (stereo not given) [KETOCONAZOLE],,,,,,,,,,,MIC [13]: 6.25 µg/mL; MIC [18]: 3.12 µg/mL; zone of inhibition at 500 µg/mL [33]: 23 mm; zone of inhibition at 500 µg/mL [34]: 22 mm

# From ChEMBL document CHEMBL2417483, “Synthesis of thiosemicarbazones derived from N-(4-hippuric acid)thiosemicarbazide and different carbonyl compounds as antimicrobial agents” (2013)
